According to PubChem BioAssay (NCI):
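GI50 = concentration required for 50% inhibition of growth. TGI: concentration producing complete growth inhibition.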

Columns and labels:
Assay in all cases: NCI anticancer screen, dose series, 384-well format
786-0 renal = test system: 786-0 renal
A498 renal = test system: A498 renal
A549 NSCLC = test system: A549 NSCLC
ACHN renal = test system: ACHN renal
BT-549 breast = test system: BT-549 breast
CAKI-1 renal = test system: CAKI-1 renal
CCRF-CEM leukemia = test system: CCRF-CEM leukemia
COLO 205 colon = test system: COLO 205 colon
DU-145 prostate = test system: DU-145 prostate
EKVX NSCLC = test system: EKVX NSCLC
HCC-2998 colon = test system: HCC-2998 colon
HCT-116 colon = test system: HCT-116 colon
HCT-15 colon = test system: HCT-15 colon
HL-60(TB) leukemia = test system: HL-60(TB) leukemia
HOP-62 NSCLC = test system: HOP-62 NSCLC
HOP-92 NSCLC = test system: HOP-92 NSCLC
HS 578T breast = test system: HS 578T breast
HT29 colon = test system: HT29 colon
IGROV1 ovarian = test system: IGROV1 ovarian
K-562 leukemia = test system: K-562 leukemia
KM12 colon = test system: KM12 colon
LOX IMVI melanoma = test system: LOX IMVI melanoma
M14 melanoma = test system: M14 melanoma
MALME-3M melanoma = test system: MALME-3M melanoma
MCF7 breast = test system: MCF7 breast
MDA-MB-231 breast = test system: MDA-MB-231 breast
MDA-MB-435 melanoma = test system: MDA-MB-435 melanoma
MDA-MB-468 breast = test system: MDA-MB-468 breast
MOLT-4 leukemia = test system: MOLT-4 leukemia
NCI-H226 lung = test system: NCI-H226 lung
NCI-H23 lung = test system: NCI-H23 lung
NCI-H322M lung = test system: NCI-H322M lung
NCI-H460 NSCLC = test system: NCI-H460 NSCLC
NCI-H522 lung = test system: NCI-H522 lung
NCI/ADR-RES ovarian = test system: NCI/ADR-RES ovarian
OVCAR-3 ovarian = test system: OVCAR-3 ovarian
OVCAR-4 ovarian = test system: OVCAR-4 ovarian
OVCAR-5 ovarian = test system: OVCAR-5 ovarian
OVCAR-8 ovarian = test system: OVCAR-8 ovarian
PC-3 prostate = test system: PC-3 prostate
RPMI-8226 leukemia = test system: RPMI-8226 leukemia
RXF 393 renal = test system: RXF 393 renal
SF-268 CNS = test system: SF-268 CNS
SF-295 CNS = test system: SF-295 CNS
SF-539 CNS = test system: SF-539 CNS
SK-MEL-28 melanoma = test system: SK-MEL-28 melanoma
SK-MEL-5 melanoma = test system: SK-MEL-5 melanoma
SK-OV-3 ovarian = test system: SK-OV-3 ovarian
SN12C renal = test system: SN12C renal
SNB-19 CNS = test system: SNB-19 CNS
SNB-75 CNS = test system: SNB-75 CNS
SR leukemia = test system: SR leukemia
SW-620 colon = test system: SW-620 colon
T-47D breast = test system: T-47D breast
TK-10 renal = test system: TK-10 renal
U251 glioblastoma = test system: U251 glioblastoma
UACC-257 melanoma = test system: UACC-257 melanoma
UO-31 renal = test system: UO-31 renal

O=C(Nc1cccc2cccnc12)c1ccc(N2C(=O)[C@@H]3[C@H](C2=O)[C@@H]2C=C[C@H]3C2)cc1
GI50 ([…]-0 renal): 21 µM | TGI (786-0 renal): 59.9 µM | GI50 (A498 renal): 25.9 µM | TGI (A498 renal): > 100 µM | GI50 (A549 NSCLC): 32.2 µM | TGI (A549 NSCLC): > 100 µM | GI50 (ACHN renal): 45.1 µM | TGI (ACHN renal): > 100 µM | GI50 (BT-549 breast): 12.6 µM | TGI (BT-549 breast): 30.5 µM | GI50 (CAKI-1 renal): 28.4 µM | TGI (CAKI-1 renal): > 100 µM | GI50 (CCRF-CEM leukemia): 16.8 µM | TGI (CCRF-CEM leukemia): 42.3 µM | GI50 (COLO 205 colon): 37.6 µM | TGI (COLO 205 colon): > 100 µM | GI50 (DU-145 prostate): 26.2 µM | TGI (DU-145 prostate): > 100 µM | GI50 (EKVX NSCLC): 25.5 µM | TGI (EKVX NSCLC): > 100 µM | GI50 (HCC-2998 colon): 20.1 µM | TGI (HCC-2998 colon): 41.6 µM | GI50 (HCT-116 colon): 38.3 µM | TGI (HCT-116 colon): > 100 µM | GI50 (HCT-15 colon): 26.1 µM | TGI (HCT-15 colon): 98.2 µM | GI50 (HL-60(TB) leukemia): 12.3 µM | TGI (HL-60(TB) leukemia): 24.9 µM | GI50 (HOP-62 NSCLC): 21.7 µM | TGI (HOP-62 NSCLC): 74.7 µM | GI50 (HOP-92 NSCLC): 43.7 µM | TGI (HOP-92 NSCLC): > 100 µM | GI50 (HS 578T breast): 29.3 µM | TGI (HS 578T breast): 93.7 µM | GI50 (HT29 colon): 14.4 µM | TGI (HT29 colon): 29.8 µM | GI50 (IGROV1 ovarian): 32.5 µM | TGI (IGROV1 ovarian): > 100 µM | GI50 (K-562 leukemia): 11.6 µM | TGI (K-562 leukemia): 25.9 µM | GI50 (KM12 colon): 32.3 µM | TGI (KM12 colon): > 100 µM | GI50 (LOX IMVI melanoma): 32.5 µM | TGI (LOX IMVI melanoma): 89.6 µM | GI50 (M14 melanoma): 43.5 µM | TGI (M14 melanoma): > 100 µM | GI50 (MALME-3M melanoma): 27.3 µM | TGI (MALME-3M melanoma): 88 µM | GI50 (MCF7 breast): 22.9 µM | TGI (MCF7 breast): > 100 µM | GI50 (MDA-MB-231 breast): 36.3 µM | TGI (MDA-MB-231 breast): > 100 µM | GI50 (MDA-MB-435 melanoma): 46.3 µM | TGI (MDA-MB-435 melanoma): > 100 µM | GI50 (MDA-MB-468 breast): 3.84 µM | TGI (MDA-MB-468 breast): 23.6 µM | GI50 (MOLT-4 leukemia): 16 µM | TGI (MOLT-4 leukemia): 29.8 µM | GI50 (NCI-H226 lung): 18 µM | TGI (NCI-H226 lung): 50 µM | GI50 (NCI-H23 lung): 16.9 µM | TGI (NCI-H23 lung): 42.6 µM | GI50 (NCI-H322M lung): 42 µM | TGI (NCI-H322M lung): > 100 µM | GI50 (NCI-H460 NSCLC): 20.5 µM | TGI (NCI-H460 NSCLC): 43.5 µM | GI50 (NCI-H522 lung): 16.4 µM | TGI (NCI-H522 lung): 32.8 µM | GI50 (NCI/ADR-RES ovarian): 12 µM | TGI (NCI/ADR-RES ovarian): 26.7 µM | GI50 (OVCAR-3 ovarian): 25.3 µM | TGI (OVCAR-3 ovarian): > 100 µM | GI50 (OVCAR-4 ovarian): 21.6 µM | TGI (OVCAR-4 ovarian): > 100 µM | GI50 (OVCAR-5 ovarian): 56.8 µM | TGI (OVCAR-5 ovarian): > 100 µM | GI50 (OVCAR-8 ovarian): 27.8 µM | TGI (OVCAR-8 ovarian): 94.6 µM | GI50 (PC-3 prostate): 26 µM | TGI (PC-3 prostate): 70.4 µM | GI50 (RPMI-8226 leukemia): 21 µM | TGI (RPMI-8226 leukemia): 36.5 µM | GI50 (RXF 393 renal): 0.907 µM | TGI (RXF 393 renal): 24.6 µM | GI50 (SF-268 CNS): 41.2 µM | TGI (SF-268 CNS): > 100 µM | GI50 (SF-295 CNS): 17.7 µM | TGI (SF-295 CNS): 57.4 µM | GI50 (SF-539 CNS): 49.1 µM | TGI (SF-539 CNS): > 100 µM | GI50 (SK-MEL-28 melanoma): 54.5 µM | TGI (SK-MEL-28 melanoma): > 100 µM | GI50 (SK-MEL-5 melanoma): 18.1 µM | TGI (SK-MEL-5 melanoma): 32.7 µM | GI50 (SK-OV-3 ovarian): 57.2 µM | TGI (SK-OV-3 ovarian): > 100 µM | GI50 (SN12C renal): 47.8 µM | TGI (SN12C renal): > 100 µM | GI50 (SNB-19 CNS): 27.2 µM | TGI (SNB-19 CNS): > 100 µM | GI50 (SNB-75 CNS): 30 µM | TGI (SNB-75 CNS): 98.5 µM | GI50 (SR leukemia): 13.5 µM | TGI (SR leukemia): 32.9 µM | GI50 (SW-620 colon): 44.9 µM | TGI (SW-620 colon): > 100 µM | GI50 (T-47D breast): 13 µM | TGI (T-47D breast): 27.1 µM | GI50 (TK-10 renal): 28.7 µM | TGI (TK-10 renal): > 100 µM | GI50 (U251 glioblastoma): 19.4 µM | TGI (U251 glioblastoma): > 100 µM | GI50 (UACC-257 melanoma): 36.2 µM | TGI (UACC-257 melanoma): > 100 µM | GI50 (UO-31 renal): 20.1 µM | TGI (UO-31 renal): > 100 µM
